We go through one molecule from article PMC11945486, “TAS1R2/TAS1R3 Single-Nucleotide Polymorphisms Affect Sweet Taste Receptor Activation by Sweeteners: The SWEET Project” (Nutrients, 2025).

For this assay, the target named is T1, human TAS1R2-S212G (subunit alone) (Homo sapiens, UniProt Q8TE23, S212G).
T1 construct: expressed in transfected cells; host or cells: HEK293T-Gα16gust44
T1 sequence (Q8TE23 20-839 S212G): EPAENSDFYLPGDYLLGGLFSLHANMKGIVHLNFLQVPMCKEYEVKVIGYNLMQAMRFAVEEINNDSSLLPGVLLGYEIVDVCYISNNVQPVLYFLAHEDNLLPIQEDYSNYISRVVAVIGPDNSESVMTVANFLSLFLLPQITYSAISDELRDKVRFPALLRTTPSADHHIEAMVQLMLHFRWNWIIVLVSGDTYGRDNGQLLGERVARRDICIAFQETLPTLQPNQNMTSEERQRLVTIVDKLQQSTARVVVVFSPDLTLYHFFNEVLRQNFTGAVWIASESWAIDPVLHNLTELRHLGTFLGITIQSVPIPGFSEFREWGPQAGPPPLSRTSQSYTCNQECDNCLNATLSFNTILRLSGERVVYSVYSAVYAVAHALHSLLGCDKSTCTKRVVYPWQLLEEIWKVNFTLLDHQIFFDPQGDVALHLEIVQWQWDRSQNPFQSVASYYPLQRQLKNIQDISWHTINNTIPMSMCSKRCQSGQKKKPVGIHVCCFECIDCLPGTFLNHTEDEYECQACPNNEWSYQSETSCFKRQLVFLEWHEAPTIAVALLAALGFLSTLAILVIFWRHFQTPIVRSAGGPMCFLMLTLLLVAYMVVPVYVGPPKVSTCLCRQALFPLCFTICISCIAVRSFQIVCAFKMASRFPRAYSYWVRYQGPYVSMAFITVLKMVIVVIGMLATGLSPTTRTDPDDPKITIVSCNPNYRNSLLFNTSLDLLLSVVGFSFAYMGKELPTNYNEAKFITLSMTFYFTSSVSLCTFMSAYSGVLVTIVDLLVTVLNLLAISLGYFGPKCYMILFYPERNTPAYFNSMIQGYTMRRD
The experiment in a line: Calcium mobilisation assay, TAS1R2-S212G subunit alone. In kind it is cell-based. The text has this: The coding sequences for TAS1R2 and TAS1R3 were commercially synthesised, and the human codon was optimised for expression in human cells. The coding sequences of human TAS1R2 and TAS1R3 were subcloned and inserted into the mammalian expression vectors pcDNA6/myc-HisA and pcDNA4/myc-HisA (Invitrogen; Thermo Fisher Scientific; Illkirch, France) between the EcoRI and NotI restriction sites, generating the plasmids pcDNA6-TAS1R2 and pcDNA4-TAS1R3, respectively. To increase protein expression in mammalian cells, an upstream start codon was used, which was a sequence called MAX, corresponding to the QBI SP163 element also described in pcDNA4-HisMax (Invitrogen; Thermo Fisher Scientific; Illkirch, France). To measure the expression level of the receptor by immunohistochemistry, we used the FLAG sequence ([…]) in the C-terminal position, which encodes the FLAG tag epitope. […]
The HEK293T cells were kindly provided by Jay P. Slack (Givaudan Flavors Corporation; Cincinnati, OH, USA). […] The fluorescence intensity was measured for 90 s (excitation 488 nm, emission 510 nm) in an automated fluorometric FlexStation®3 Multi-Mode microplate reader (Molecular Devices; San Jose, CA, USA). […] The Ca^2+ changes were expressed as fractional changes in fluorescent light intensity: ΔF/F = (F − F0)/F0, where F was the fluorescent light intensity at each point, and F0 was the value of emitted fluorescent light prior to stimulus application. To calculate dose–response relationships, the changes in fluorescence upon stimulus application were averaged, mock-subtracted and baseline-corrected. […] The half-maximal effective concentrations (EC50 values) and maximal signal amplitudes were calculated using SigmaPlot software (version 15.0) (Systat Software; San Jose, CA, USA).
For in vitro calcium mobilisation assay performed on hTAS1R2-SNPs, hTAS1R3-SNPs and mTAS1R3-I60T, 6 to 7 concentrations were tested for each sweet compound, plus buffer alone. All concentration–receptor combinations were measured in duplicate, and each experiment was repeated at least 4 times (8 wells/concentration). […]

As to `C=C(C)[C@@H]1CC=C(/C=N/O)CC1` [Perillartine, perillartine], the EC50 was found to be 178 ± 22.7 µM and the “R1 = Variant EC50/WT EC50” value stood at 2.0. Moreover, the “Max ΔF/F0” value (maximal signal amplitude) stood at 0.47 ± 0.02.
